Experimental data reported in patent US7192951B2, “Treatment of congestive heart failure” (Astellas Pharma Inc., priority 2000, dated 2007).
Structures can show the parent of a compound that is named as a salt.

Columns and labels:
[1] = test system: urinary output (V2 antagonism); assay: Urinary output and osmolality in conscious dogs, oral; type: in vivo, dog
[2] = test system: aquaretic action (V2-receptor antagonism); assay: Aquaretic action in normal subjects (Phase 1); type: in vivo, human
[3] = test system: AVP-induced pressor response (V1A antagonism); assay: Antagonism of AVP-induced pressor response in dogs, intravenous; type: in vivo, dog
[4] = test system: AVP-induced platelet aggregation (V1A antagonist activity); assay: AVP-induced platelet aggregation in Phase 1 subjects; type: in vivo, human; details: 20 mg/day orally or 2.5 mg IV
[5] = Human pharmacokinetics (Phase 1)
[6] = test system: AVP-induced pressor response (V1A antagonism); assay: Antagonism of AVP-induced pressor response in rats, oral; type: in vivo, rat
[7] = test system: female rats (estrous cycle, uterine weights); details: 13-week repeated oral dose, all doses
[8] = test system: AVP-induced dermal vasoconstriction; assay: AVP-induced dermal vasoconstriction in Phase 1 subjects; type: in vivo, human; details: 50 mg IV
rats [9] = details: rat, in vivo, 2.5 mg/kg
bacteria = assay: Mutagenicity in bacteria; type: cell-based
rats [10] = assay: Teratogenicity in rats; type: in vivo, rat
[11] = test system: heart failure induced by rapid right ventricular pacing; assay: Dogs with heart failure induced by rapid right ventricular pacing; type: in vivo, dog; details: intravenous 0.1 mg/kg
dogs = details: dog, in vivo, 2 mg/kg
human lymphocytes = assay: Clastogenicity in human lymphocytes in vitro; type: cell-based
rats (fertility) = assay: Reproductive performance and female fertility study in rats; type: in vivo, rat
bone marrow = assay: 2- and 13-week oral toxicity studies in dogs; type: in vivo, dog
human subjects = assay: Safety in Phase 1 subjects; type: in vivo
Excerpt: Other adverse events included flushes, a sensation of cold extremities, abdominal complaints, abnormal stools, syncope, dizziness, palpitations, and postural hypotension. […] These observations were considered related to antagonism of V2 receptors and not a safety concern. Vital signs (blood pressure and heart rate) were unaffected by YM087.

rabbits = assay: Teratogenicity in rabbits; type: in vivo, rabbit
[12] = Oral pharmacokinetics in dogs; type: in vivo; details: dog
Excerpt: (§1) There is a marked food effect with absorption reduced by >50% in dogs after a meal.

[13] = Oral pharmacokinetics in rats; type: in vivo; details: rat
Excerpt: as §1

bone marrow of rats = assay: Clastogenicity in bone marrow of rats; type: in vivo, rat

Cc1nc2c([nH]1)-c1ccccc1N(C(=O)c1ccc(NC(=O)c3ccccc3-c3ccccc3)cc1)CC2 [YM087, N-[4-(2-methyl-4,5,6-tetrahydromidazo[4,5-d][1]benzazepin-6-ylcarbonyl)phenyl]biphenyl-2-carboxamide hydrochloride]
urinary output ([1]; conscious dogs, oral 0.03 to 0.3 mg/kg, dose-related): increased urinary output
urinary osmolality ([1]; conscious dogs, oral 0.03 to 0.3 mg/kg, reduced from 1500, dose-related): < 100 mOsm/kg H2O
effect on urinary sodium (Na) or potassium (K) excretion ([1]; unlike furosemide, species not given): little or no effect
duration of increased urine production rate postdosing ([2]; IV 50 mg/day): ≤ 6 h
duration of increased urine production rate postdosing ([2]; IV doses up to 250 μg/kg): up to 3 hours
tolerability of aquaretic effects ([2]; normal subjects, 120 mg QD or 60 mg BID orally or 50 mg IV): considered too uncomfortable in normal subjects to be tolerable
dose at which aquaretic action with decrease in urine osmolarity starts ([2]; normal subjects, IV): 0.05 mg/kg
dose at which aquaretic action with decrease in urine osmolarity starts ([2]; normal subjects, oral): 15 mg
ID50 (dose that reduced the AVP response by 50%) [3]: 0.026 mg/kg
AVP-induced platelet aggregation [4]: Inhibition of AVP-induced platelet aggregation
plasma levels after repeated BID oral doses ([5]; 60 mg BID oral, after the second dose): unexpectedly high plasma levels after the second dose
half-life ([5]; plasma): 4 to 5 h
bioavailability ([5]; plasma, oral): 43 to 59%
Tmax ([5]; plasma, po): ~1 h
bioavailability ([5]; plasma, po, 60 mg): 44%
ID50 (dose that reduced the AVP response by 50%) [6]: 0.32 mg/kg
uterine weights [7]: decreased at all doses
AVP-induced dermal vasoconstriction [8]: Total inhibition
toxicity in 4-week IV study (rats [9]): No toxicity was observed
mutagenicity (bacteria): not mutagenic
teratogenicity (rats [10]): not teratogenic
cardiac function [11]: significantly improved the depressed cardiac function
diuresis [11]: produced a water diuresis
toxicity in 4-week IV study (dogs): No toxicity was observed
clastogenicity (human lymphocytes): not clastogenic
female fertility (rats (fertility); female rats, 100 mg/kg orally for 2 weeks prior to mating with untreated males): reduced fertility index, increased implantation loss, and decreased live fetuses
reproductive performance of male rats (rats (fertility); male rats): did not affect
peripheral blood counts (bone marrow; affected dogs, 13-week oral study): Decreased peripheral erythrocyte, leukocyte, and/or platelet counts
reversibility of bone marrow and peripheral blood changes (bone marrow; dogs): reversible
biochemical or hematological laboratory parameters (human subjects; Phase 1 subjects): No drug-related trend was observed
vital signs (blood pressure and heart rate) (human subjects; Phase 1 subjects): unaffected
overall safety (human subjects; approximately 250 subjects treated): no major safety concerns were identified
urinary and plasma osmolarity (human subjects; at higher doses, considered related to V2 antagonism): urinary osmolarity decreased and plasma osmolarity increased with or without an increase in plasma sodium
serious adverse event (human subjects; one patient with severe CHF, 80 mg/day for 4 days, relation to study drug could not be excluded): generalized tonic clonic seizure
most frequent adverse events (human subjects; regardless of treatment association): mild or moderate thirst and mild headache
white blood cell counts (human subjects; three subjects who received YM087 (one on placebo)): minor, reversible decreases in white blood cell counts
teratogenicity (rabbits): not teratogenic
time to peak concentrations [12]: 1 h
time to peak concentrations [13]: 0.5 h
clastogenicity (bone marrow of rats): not clastogenic
